Measured values taken from US10591496B2, “Analyte extraction apparatus and method” (Sphere Medical Limited, priority 2013, dated 2020).

Assays:
[1] = free and bound Vancomycin fractions by SPE extraction and Gibbs reaction colorimetry; format: in vitro ADME; conditions: commercially available whole human serum spiked with 29 μM Vancomycin, absorbance at 589 nm, n=3, error = standard deviation
Protocol: A 1 ml whole serum sample (WHS) spiked with Vancomycin is applied to a 30 mg/1 ml reversed phase Strata™-X (polystyrene-divinylbenzene-N-vinylpyrrolidone copolymer) SPE column from Phenomenex (Torrance, Calif.). The column is washed firstly with 2 ml water to remove weakly bound impurities. This washing step may be repeated if necessary. Then a known volume (1 ml) of an organic solvent such as, but not limited to, methanol is used to elute the free Vancomycin fraction from the sorbent. This optionally may be followed by another organic washing step, e.g. another washing step with an organic solvent, which may be the same solvent or a different solvent as used in the elution step. The bound Vancomycin fraction is then eluted from the SPE column using a known volume (0.5 ml) of a mixture of one-third water and two-thirds methanol (by volume).
A 350 μl fraction of each elute is then transferred into separate vials. Then 50 μl of 3.625 mM Gibbs in methanol is added to each vial, followed by 40 μl of 0.4 M sodium hydroxide in borate buffer or water, which initiates the coupling reaction and results in an immediate colour change. After a shake, typically 350 μl of each mixture is transferred into a cuvette and their spectra are measured via a spectrophotometer. […]

[2] = Zeitlinger et al. 2011, cited from earlier work

Compound: CN[C@H](CC(C)C)C(=O)N[C@H]1C(=O)N[C@@H](CC(N)=O)C(=O)N[C@H]2C(=O)N[C@H]3C(=O)N[C@H](C(=O)N[C@H](C(=O)O)c4cc(O)cc(O)c4-c4cc3ccc4O)[C@H](O)c3ccc(c(Cl)c3)Oc3cc2cc(c3O[C@@H]2O[C@H](CO)[C@@H](O)[C@H](O)[C@H]2O[C@H]2C[C@](C)(N)[C@H](O)[C@H](C)O2)Oc2ccc(cc2Cl)[C@H]1O [Vancomycin]
- percentage of Vancomycin free ([1]; methanol elute): 63±12%
- percentage of Vancomycin bound ([1]; water/methanol (1:2) elute): 37±2%
- mean fraction bound ([2]; often quoted mean): 55%
- protein bound (variation) ([2]; range of protein binding): 10-82%
